Assay results reported in US20220125959A1, “PROSTATE-SPECIFIC MEMBRANE ANTIGEN (PSMA) INHIBITORS AS DIAGNOSTIC AND RADIONUCLIDE THERAPEUTIC AGENTS” (FIVE ELEVEN PHARMA INC., priority 2019, published 2022).

Columns and labels:
PSMA [1] = target: T1, PSMA (Homo sapiens, UniProt Q04609); assay: PSMA competitive binding, LNCaP cells with [68Ga]PSMA-11; design: LNCaP with 0.2 nM; endogenous in cells; host or cells: LNCaP cells (suspension); details: n = 3; read-out: IC50 (LNCaP human PCa cells and [68Ga]PSMA-11)
Procedure: (§1) In vitro binding assays were carried out to determine the PSMA binding affinity of various compounds. By incubating PSMA positive cells either with: 1). LNCaP with 0.2 nM [^68Ga]PSMA-11 or [^125I]MIP-1095, as the ligand, in the presence of 10 different concentrations of competing ligands; non-specific binding was defined with 20 μM 2-PMPA (2-(phosphonomethyl)pentanedioic acid); or 2). PC-3 PIP cells with [^125I]MIP-1095 (0.18 nM diluted in PBS) in presence of different concentration of test compounds ([…] diluted in PBS containing 0.1% bovine serum albumin). Nonspecific binding (NSB) was defined with 2 μM the known PSMA inhibitor, PSMA-617. After incubation at 37° C. for 1 h, the bound and free fractions were separated by vacuum filtration through GF/B filters using a Brandel M-24R cell harvester. The filters were washed twice with cold Tris-HCl buffer (50 mM, pH=7.4), and the radioactivity on the filters was counted in a gamma counter (Wizard^2, Perkin-Elmer) with 50% efficiency. The nonspecific bound was less than 10% of the total bound. Data were analyzed using GraphPad Prism 6.0 with a nonlinear regression algorithm to obtain the half maximal inhibitory concentration (IC50).
(§2) The binding affinities to PSMA of the test compounds were measured by a competitive binding assay using either LNCap or PC-3 PIP cells suspension and the known radiotracers known to have high affinity and specificity to PSMA, [^68Ga]PSMA-11 or [^125I]MIP-1095. The IC50 values of four iodinated compounds, three DOTA, DOTAG and DOTA(GA)2 related compounds and two known PSMA inhibitors are shown in Table 1. Complexes of compound 4 and natural Ga and natural Lu were also tested. […] After labeling with radioisotope they are expected to bind to the tumor tissues over expressing PSMA binding sites.
Target sequence in this assay (Q04609 whole entry): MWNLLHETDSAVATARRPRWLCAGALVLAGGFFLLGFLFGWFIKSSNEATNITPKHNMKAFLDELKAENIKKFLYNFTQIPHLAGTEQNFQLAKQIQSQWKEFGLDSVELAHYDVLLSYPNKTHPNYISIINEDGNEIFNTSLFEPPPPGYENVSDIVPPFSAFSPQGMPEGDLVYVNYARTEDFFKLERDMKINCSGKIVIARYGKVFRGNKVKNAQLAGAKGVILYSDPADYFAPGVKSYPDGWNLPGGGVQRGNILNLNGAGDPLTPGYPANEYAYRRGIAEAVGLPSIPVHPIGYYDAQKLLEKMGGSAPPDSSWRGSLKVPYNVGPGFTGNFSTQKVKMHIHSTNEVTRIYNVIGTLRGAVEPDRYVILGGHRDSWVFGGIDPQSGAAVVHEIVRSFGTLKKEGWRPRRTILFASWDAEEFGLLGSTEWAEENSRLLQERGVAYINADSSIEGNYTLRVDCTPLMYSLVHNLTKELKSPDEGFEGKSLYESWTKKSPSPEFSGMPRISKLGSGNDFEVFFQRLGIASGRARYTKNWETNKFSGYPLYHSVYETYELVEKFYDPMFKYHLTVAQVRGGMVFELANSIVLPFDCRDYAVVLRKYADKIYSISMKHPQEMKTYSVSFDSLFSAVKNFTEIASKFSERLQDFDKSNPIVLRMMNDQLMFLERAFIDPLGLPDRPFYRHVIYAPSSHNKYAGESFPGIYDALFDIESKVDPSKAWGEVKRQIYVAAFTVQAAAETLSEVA

PSMA [2] = target: T1, PSMA; assay: PSMA competitive binding, PC-3 PIP cells with [125I]MIP-1095; design: expressed in transfected cells; host or cells: PC-3 PIP cells; details: n = 3 (a: n = 2); read-out: IC50 *(PC-3 PIP cells and [125I]MIP-1095)
Procedure: as §1, §2
Target sequence in this assay (Q04609 whole entry, species assumed): as the sequence (Q04609 whole entry) above

[3] = Stability of injected doses after formulation; format: physicochemical; details: at 24 hr after formulation
How it was run: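 Ligand labeled with ^68Ga (90° C, 10 min) or ^177Lu (95° C, 1 hour) in NaOAc; radiochemical purity checked by radio-HPLC, with stability of formulated doses followed to 2 hr (^68Ga) or 48 hr (^177Lu). Mice received iv 100 μCi, 0.72 nmole ligand/mouse.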

[4] = system: PC3-PIP (PSMA positive) and PC-3 tumors (PSMA negative); assay: Biodistribution of 177Lu labeled compounds 42 and 51 in tumor bearing nude mice; format: in vivo, CD-1 male nude mice
Procedure: For iv injection 150 μL of labeled solution was diluted with saline to 3.75mL. Mice were injected with 150 μL of formulated dose. Injected radioactivity was 100 μCi and PSMA ligand amount was constant at 0.72 nmole/mouse.
Similarly, the tissue distribution of [^177Lu]42 and [^177Lu]51 was evaluated in mice bearing PIP PC3 (PSMA positive) and PC3 (PSMA negative) tumors on the left and right shoulder, respectively, over a period of 24 h (Table 4). […] The tumor specific uptake for [^177Lu]51 was higher than that observed for [^177Lu]42. […] Results of this study lend support for using these dual-targeted ^177Lu labeled agents for treatment of metastatic prostate cancer.

[5] = system: PSMA-positive cell line, PIP PC3; assay: In vitro cell uptake, PIP PC3 cells; format: cell-based
How it was run: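 Cellular uptake of [^177Lu]-labelled ligands was measured in PIP PC3 cells seeded at 5×10^5 cells/well in 12-well plates and grown 48 h in 1 mL medium. After two PBS washes and addition of 900 μL fresh medium, triplicate wells were incubated at 37° C. Cells were then washed twice, lysed in 1 mL of 0.5 M NaOH, and gamma-counted, with uptake expressed as % ID.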

[6] = system: PSMA-negative cell line, PC3; assay: In vitro cell uptake, PC3 cells; format: cell-based; details: PC3 (do not express PSMA), 60 min
How it was run: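 Cells grown 48 h, washed, then incubated at 37 °C with [^177Lu]-labelled ligand; nonspecific binding defined with 10 μM 2-PMPA. After washing and lysis in 0.5 M NaOH, activity counted in a gamma counter; uptake expressed as % ID, triplicates.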

O=C(O)CCC(C(=O)O)N1CCN(CC(=O)O)CCN(C(CCC(=O)NCC(=O)N[C@@H](Cc2ccc(OCC(=O)N[C@@H](Cc3ccccc3)C(=O)NCCCC[C@H](NC(=O)N[C@@H](CCC(=O)O)C(=O)O)C(=O)O)cc2)C(=O)O)C(=O)O)CCN(CC(=O)O)CC1 (stereo partly drawn) [Compound 4, (4S,11S,15S)-4-benzyl-1-(4-((2S)-2-(2-(4-(4,10-bis(carboxymethyl)-7-(1,3-dicarboxypropyl)-1,4,7,10-tetraazacyclododecan-1-yl)-4-carboxybutanamido)acetamido)-2-carboxyethyl)phenoxy)-2,5,13-trioxo-3,6,12,14-tetraazaheptadecane-11,15,17-tricarboxylic acid]
IC50 (PSMA [1]): 28.7 ± 1.7 nM
IC50 (PSMA [2]): 33.9 ± 2.38 nM

O=C(O)CC[C@H](NC(=O)N[C@@H](CCCCNC(=O)[C@H](Cc1ccccc1)NC(=O)COc1ccc(C[C@H](NC(=O)CNC(=O)CCC(C(=O)O)N2CCN(CC(=O)O)CCN(C(CCC(=O)NCCOCCOCCNC(=O)CCCc3ccc(I)cc3)C(=O)O)CCN(CC(=O)O)CC2)C(=O)O)cc1)C(=O)O)C(=O)O (stereo partly drawn) [Compound 7, (4S,11S,15S)-4-benzyl-1-(4-((2S)-2-carboxy-2-(2-(4-carboxy-4-(7-(1-carboxy-18-(4-iodophenyl)-4,15-dioxo-8,11-dioxa-5,14-diazaoctadecyl)-4,10-bis(carboxymethyl)-1,4,7,10-tetraazacyclododecan-1-yl)butanamido)acetamido)ethyl)phenoxy)-2,5,13-trioxo-3,6,12,14-tetraazaheptadecane-11,15,17-tricarboxylic acid]
IC50 (PSMA [1]): 15.4 ± 0.8 nM
IC50 (PSMA [2]): 13.6 ± 1.02 nM

O=C(O)CC[C@H](NC(=O)N[C@@H](CCCCNC(=O)[C@H](Cc1ccccc1)NC(=O)COc1ccc(C[C@H](NC(=O)CNC(=O)CCC(C(=O)O)N2CCN(CC(=O)O)CCN(CC(=O)O)CCN(CC(=O)O)CC2)C(=O)NCC(=O)NC(P(=O)(O)O)P(=O)(O)O)cc1)C(=O)O)C(=O)O (stereo partly drawn) [Compound 51, (((1S)-1-Carboxy-5-((2S)-2-(2-(4-((2S)-2-(2-(4-carboxy-4-(4,7,10-tris(carboxymethyl)-1,4,7,10-tetraazacyclododecan-1-yl)butanamido)acetamido)-3-((2-((diphosphonomethyl)amino)-2-oxoethyl)amino)-3-oxopropyl)phenoxy)acetamido)-3-phenylpropanamido)pentyl)carbamoyl)-L-glutamic acid]
IC50 (PSMA [1]): 10.7 ± 1.6 nM

O=C(O)CC[C@H](NC(=O)N[C@@H](CCCCNC(=O)[C@H](Cc1ccccc1)NC(=O)COc1ccc(C[C@H](NC(=O)CNC(=O)CCC(C(=O)O)N2CCN(CC(=O)O)CCN(CC(=O)O)CCN(CC(=O)O)CC2)C(=O)NCC(=O)NC(P(=O)(O)O)P(=O)(O)O)cc1)C(=O)O)C(=O)O.[177Lu] (stereo partly shown) [[^177Lu]51]
Stability of injected doses [3]: stable
Biodistribution: Blood ([4]; 1 hr): 0.18 ± 0.04 % dose/g
Biodistribution: Bone ([4]; 1 hr): 6.52 ± 0.34 % dose/g
Biodistribution: Heart ([4]; 1 hr): 0.20 ± 0.06 % dose/g
Biodistribution: Kidney ([4]; 1 hr): 90.59 ± 18.47 % dose/g
Biodistribution: Lg Intestine ([4]; 1 hr): 0.10 ± 0.04 % dose/g
Biodistribution: Liver ([4]; 1 hr): 0.23 ± 0.03 % dose/g
Biodistribution: Lung ([4]; 1 hr): 0.62 ± 0.09 % dose/g
Biodistribution: Muscle ([4]; 1 hr): 0.11 ± 0.03 % dose/g
Biodistribution: PC3 tumor ([4]; 1 hr): 0.53 ± 0.12 % dose/g
Biodistribution: PIP PC3 tumor ([4]; 1 hr): 14.70 ± 1.29 % dose/g
Biodistribution: Pancreas ([4]; 1 hr): 0.37 ± 0.11 % dose/g
Biodistribution: Skin ([4]; 1 hr): 0.35 ± 0.05 % dose/g
Biodistribution: Sm Intestine ([4]; 1 hr): 0.16 ± 0.03 % dose/g
Biodistribution: Spleen ([4]; 1 hr): 1.33 ± 0.41 % dose/g
Biodistribution: Stomach ([4]; 1 hr): 0.11 ± 0.03 % dose/g
Biodistribution: Blood ([4]; 4 hr): 0.03 ± 0.01 % dose/g
Biodistribution: Bone ([4]; 4 hr): 6.74 ± 0.71 % dose/g
Biodistribution: Heart ([4]; 4 hr): 0.05 ± 0.00 % dose/g
Biodistribution: Kidney ([4]; 4 hr): 35.24 ± 5.28 % dose/g
Biodistribution: Lg Intestine ([4]; 4 hr): 0.22 ± 0.15 % dose/g
Biodistribution: Liver ([4]; 4 hr): 0.16 ± 0.00 % dose/g
Biodistribution: Lung ([4]; 4 hr): 0.20 ± 0.06 % dose/g
Biodistribution: Muscle ([4]; 4 hr): 0.03 ± 0.00 % dose/g
Biodistribution: PC3 tumor ([4]; 4 hr): 0.20 ± 0.03 % dose/g
Biodistribution: PIP PC3 tumor ([4]; 4 hr): 15.12 ± 1.36 % dose/g
Biodistribution: Pancreas ([4]; 4 hr): 0.11 ± 0.03 % dose/g
Biodistribution: Skin ([4]; 4 hr): 0.11 ± 0.01 % dose/g
Biodistribution: Sm Intestine ([4]; 4 hr): 0.21 ± 0.29 % dose/g
Biodistribution: Spleen ([4]; 4 hr): 0.39 ± 0.12 % dose/g
Biodistribution: Stomach ([4]; 4 hr): 0.26 ± 0.23 % dose/g
Biodistribution: Blood ([4]; 24 hr): 0.00 ± 0.00 % dose/g
Biodistribution: Bone ([4]; 24 hr): 5.51 ± 0.66 % dose/g
Biodistribution: Heart ([4]; 24 hr): 0.03 ± 0.01 % dose/g
Biodistribution: Kidney ([4]; 24 hr): 4.18 ± 1.74 % dose/g
Biodistribution: Lg Intestine ([4]; 24 hr): 0.49 ± 0.34 % dose/g
Biodistribution: Liver ([4]; 24 hr): 0.14 ± 0.02 % dose/g
Biodistribution: Lung ([4]; 24 hr): 0.10 ± 0.04 % dose/g
Biodistribution: Muscle ([4]; 24 hr): 0.02 ± 0.00 % dose/g
Biodistribution: PC3 tumor ([4]; 24 hr): 0.16 ± 0.02 % dose/g
Biodistribution: PIP PC3 tumor ([4]; 24 hr): 10.75 ± 2.52 % dose/g
Biodistribution: Pancreas ([4]; 24 hr): 0.03 ± 0.00 % dose/g
Biodistribution: Skin ([4]; 24 hr): 0.07 ± 0.02 % dose/g
Biodistribution: Sm Intestine ([4]; 24 hr): 0.30 ± 0.33 % dose/g
Biodistribution: Spleen ([4]; 24 hr): 0.15 ± 0.04 % dose/g
Biodistribution: Stomach ([4]; 24 hr): 0.40 ± 0.56 % dose/g
Bone uptake compared with [177Lu]42 ([4]; mouse, in vivo): consistently higher
PC3 (PSMA negative) tumor uptake ([4]; mouse, in vivo): very low uptake
PIP PC3 (PSMA positive) tumor uptake ([4]; mouse, in vivo): excellent
Tumor specific uptake compared with [177Lu]42 ([4]; mouse, in vivo): higher
Uptake in bone ([4]; mouse, in vivo): high specific uptake in bone
Uptakes compared with reference ligand [177Lu]PSMA-617 ([5]; PIP PC3): much higher uptakes
In vitro cell uptake ([5]; PIP PC3, 5 min): 4.4 % ID per 5 × 10^5 cells
In vitro cell uptake ([5]; PIP PC3, 15 min): 8.4 % ID per 5 × 10^5 cells
In vitro cell uptake ([5]; PIP PC3, 30 min): 13.4 % ID per 5 × 10^5 cells
In vitro cell uptake ([5]; PIP PC3, 60 min): 17.4 % ID per 5 × 10^5 cells
In vitro cell uptake ([5]; PIP PC3, 60 min, with PSMA inhibitor (2-PMPA, 2 uM)): 1.1 % ID per 5 × 10^5 cells
In vitro cell uptake ([5]; PIP PC3, 120 min): 19.3 % ID per 5 × 10^5 cells
In vitro cell uptake [6]: 0.7 % ID per 5 × 10^5 cells
